Data as given in paper PMC3103472, “The p75 neurotrophin receptor localization in blood-CSF barrier: expression in choroid plexus epithelium” (BMC Neuroscience, 2011).

Columns and labels:
[1] = system: p75NTR; test: Proteolytic processing of p75NTR (Western blot, immunofluorescence, cell fractionation); format: cell-based, rat
Description: Primary cultures from choroid plexus epithelial cells from P3-P5 Wistar rats were prepared as described previously. Cells were grown to confluence for 5-7 days and serum starved for 2 hours. Cultures were maintained at 37°C in a humidified atmosphere containing 5% CO2, and cultivated for 7 days prior to experimentation. Human analogue peptides corresponding to Aβ1-40 and scrambled Aβ1-40 (AnaSpec, Inc.) were added. […] For ICD p75NTR detection primary cultures cells proteasome inhibitor epoxomycin (1 μM) (Sigma) was applied 1.5 hours prior to Aβ treatment.
For Western blot analysis cultures cells were washed once with ice-cold PBS and lysed in PIK buffer (150 mM NaCl, 20 mM TrisHCl pH 7.4, 1% NP40 and protease inhibitors: 1 μg/mL aprotinin, 1 μg/mL leupeptin and 1 μg/mL phenylmethylsulfonyl fluoride, PMSF). For cell fractionation cells were lysed with C buffer (10 mM HEPES, 60 mM KCl, 1 mM EDTA, 0.075% Triton X100, 1 mM DTT with protease inhibitors. The pellet nuclei was obtained by centrifugation 325 g, 4 minutes and resuspended in NB buffer (20 mM TrisHCl pH 8, 420 mM NaCl, 15 mM MgCl2, 0.2 mM EDTA, 25% Glicerol and protease inhibitors). Thereafter, the nuclei supernatant were obtained after centrifugation 9000 g, 10 minutes. After running the samples in acrylamide gels, proteins were transferred (immobilon, Bio-Rad) and membranes were incubated with the corresponding primary at 4°C overnight. Afterwards, membranes were washed and incubated with secondary antibodies. Membranes were washed several times with Tween-TBS and developed with ECL plus (Amersham). Western blot membranes were re-blotted with unrelated proteins (α-actin) as an internal standard and normalized for protein load. Densitometric analysis was performed using ImageJ software (NIH Image). A representative blot is shown from a total of at lest three independent experiments.
Immunocytochemistry was performed with primary cultures from choroid plexus plated on 20 mm coverslips and fixed. Rat and human choroid plexus were also fixed with 4% paraformaldehyde and processed for histochemical analysis. […]

[2] = system: choroid plexus epithelial cells; test: Cell death quantification with Cell Death Detection ELISAPLUS kit; format: cell-based, rat; details: primary choroid plexus epithelial cells, Aβ40 5 mg/ml, 24 h, ELISA PLUS kit
Description: Primary cultures from choroid plexus epithelial cells from P3-P5 Wistar rats were prepared as described previously. Cells were grown to confluence for 5-7 days and serum starved for 2 hours. Cultures were maintained at 37°C in a humidified atmosphere containing 5% CO2, and cultivated for 7 days prior to experimentation. Human analogue peptides corresponding to Aβ1-40 and scrambled Aβ1-40 (AnaSpec, Inc.) were added. 24 hours after stimulation, cells were either fixed for immunocytochemical analysis or homogenized for immunoblot determination. For ICD p75NTR detection primary cultures cells proteasome inhibitor epoxomycin (1 μM) (Sigma) was applied 1.5 hours prior to Aβ treatment.
For cell death quantification, after incubation for 24 h with Aβ40 (5 mg/ml), choroid plexus epithelial cells in vitro were measured with Cell Death Detection ELISAPLUS kit (Roche Diagnostics) as described previously.

Substance: Aβ1-40: Human analogue peptides corresponding to Aβ1-40 (AnaSpec, Inc.)
- release of p75NTR-ICD fragment (19 KDa) ([1]; Aβ1-40 2.5 μg/mL for 15, 30 and 60 minutes, proteasome inhibitor pre-treatment, Western blot with antibody 9992): induced a release of ICD fragment at 15 and 30 minutes
- nuclear accumulation of p75NTR-ICD, immunofluorescence ([1]; Aβ1-40 2.5 μg/mL, 60 minutes, proteasome inhibitor 1.5 hours before, confocal microscopy): considerable accumulation of p75NTR-ICD occurred in the majority of nuclei
- p75NTR-ICD 19 KDa band in nuclear extracts ([1]; Aβ1-40 for 15, 30 and 60 minutes, nuclear and cytoplasmic extracts, Western blot with antibody 9992): enriched in nuclear extracts
- increase of cell death upon control cells [2]: 29%
